From the RepoRT retention time repository

Assay: Waters XBridge BEH C18, 150 × 1 mm, 1.7 µm, 30 °C, 0.04 mL/min, estimated dead time 1.9 min; A: 79.7% water + 20% methanol + 0.3% acetic acid; B: 99.7% methanol + 0.3% acetic acid; gradient (min/%B) 0/0 17/58.7 17.2/100 20.2/100
Conditions: stereoisomer not certain

c1ccc(C2(N3CCCCC3)CCCCC2)cc1
LC retention time: 14.7 min

CC(N)Cc1ccccc1 (stereo unspecified)
LC retention time: 7.5 min

COc1ccc2c3c1OC1C(O)C=CC4C(C2)NCCC341 (stereo unspecified)
LC retention time: 5.1 min

CNC(C)C(=O)c1ccccc1 (stereo unspecified)
LC retention time: 5.6 min

CCNC(C)Cc1ccc2c(c1)OCO2 (stereo unspecified)
LC retention time: 9.4 min

CCC(=O)OC(Cc1ccccc1)(c1ccccc1)C(C)CNC (stereo unspecified)
LC retention time: 20.1 min

CCC(Cc1ccc2c(c1)OCO2)NC (stereo unspecified)
LC retention time: 10.3 min

CN1CCCC1c1cccnc1 (stereo unspecified)
LC retention time: 3.3 min

CNCC1CCCCC1(O)c1cccc(OC)c1 (stereo unspecified)
LC retention time: 12.5 min

CCC(=O)OC(Cc1ccccc1)(c1ccccc1)C(C)CN(C)C (stereo unspecified)
LC retention time: 19.6 min

Cn1c(=O)c2c(ncn2C)n(C)c1=O
LC retention time: 9 min

COC(=O)C1=CCC2CCC1N2C (stereo unspecified)
LC retention time: 3.6 min

COC(=O)C1C(OC(=O)c2ccccc2)CC2CCC1N2C (stereo unspecified)
LC retention time: 11.8 min

CC(=O)Oc1ccc2c3c1OC1C(OC(C)=O)C=CC4C(C2)N(C)CCC341 (stereo unspecified)
LC retention time: 11.4 min

CN1C2CC=C(C(=O)O)C1CC2 (stereo unspecified)
LC retention time: 3 min

CCC(=O)C(CC(C)N(C)C)(c1ccccc1)c1ccccc1 (stereo unspecified)
LC retention time: 20.2 min

Cc1ccccc1-n1c(C)nc2ccccc2c1=O
LC retention time: 20.2 min

CC(N)Cc1ccc2c(c1)OCO2 (stereo unspecified)
LC retention time: 8.1 min

Oc1ccc2c3c1OC1C(O)C=CC4C(C2)NCCC341 (stereo unspecified)
LC retention time: 3.5 min

CCOC(=O)C1C(OC(=O)c2ccccc2)CC2CCC1N2C (stereo unspecified)
LC retention time: 13.9 min

c1ccc(CN2CCNCC2)cc1
LC retention time: 4.3 min

CN1CCC23c4c5ccc(O)c4OC2C(O)C=CC3C1C5 (stereo unspecified)
LC retention time: 3.5 min

O=C1CN=C(c2ccccc2)c2cc([N+](=O)[O-])ccc2N1
LC retention time: 19.8 min

CNC(C)Cc1ccc2c(c1)OCO2 (stereo unspecified)
LC retention time: 8.3 min

COc1ccc(C(CN(C)C)C2(O)CCCCC2)cc1 (stereo unspecified)
LC retention time: 15.4 min

COc1cccc(C2(O)CCCCC2CN(C)C)c1 (stereo unspecified)
LC retention time: 11.4 min

CN1C2CCC1C(C(=O)O)C(OC(=O)c1ccccc1)C2 (stereo unspecified)
LC retention time: 10.7 min

CCCc1nn(C)c2c(=O)[nH]c(-c3cc(S(=O)(=O)N4CCN(C)CC4)ccc3OCC)nc12
LC retention time: 18.8 min

COc1ccc2c3c1OC1C(O)CCC4C(C2)N(C)CCC341 (stereo unspecified)
LC retention time: 4.6 min

CCC(N)Cc1ccc2c(c1)OCO2 (stereo unspecified)
LC retention time: 10.3 min

CN1CCC23c4c5ccc(O)c4OC2C(=O)CCC3(O)C1C5 (stereo unspecified)
LC retention time: 3.6 min

COC12CCC3(CC1C(C)(O)C(C)(C)C)C1Cc4ccc(O)c5c4C3(CCN1CC1CC1)C2O5 (stereo unspecified)
LC retention time: 17.3 min

Cn1c(=O)[nH]c2ncn(C)c2c1=O
LC retention time: 6.1 min

Nc1ccc2c(c1)C(c1ccccc1)=NCC(=O)N2
LC retention time: 6.2 min

CCN(CC)C(=O)C1C=C2c3cccc4[nH]cc(c34)CC2N(C)C1 (stereo unspecified)
LC retention time: 13.8 min

CC(=O)OC1C=CC2C3Cc4ccc(O)c5c4C2(CCN3C)C1O5 (stereo unspecified)
LC retention time: 6.4 min

CC(N)C(O)c1ccccc1 (stereo unspecified)
LC retention time: 5.2 min

COC(=O)C1C2CCC(CC1OC(=O)c1ccccc1)N2 (stereo unspecified)
LC retention time: 12.8 min

COc1cc(CCN)cc(OC)c1OC
LC retention time: 7 min

CN(C)CCC=C1c2ccccc2CSc2ccccc21
LC retention time: 19.2 min

CCOP(=O)(Sc1ccccc1)Sc1ccccc1
LC retention time: 16.7 min

COc1ccc2c3c1OC1C(=O)CCC4(O)C(C2)N(C)CCC314 (stereo unspecified)
LC retention time: 5.4 min

CN1C(=O)CCC1c1cccnc1 (stereo unspecified)
LC retention time: 3.6 min

CNC(C)C(O)c1ccccc1 (stereo unspecified)
LC retention time: 5.9 min

CNC(C)Cc1ccccc1 (stereo unspecified)
LC retention time: 7.9 min

COc1ccc2c3c1OC1C(O)C=CC4C(C2)N(C)CCC341 (stereo unspecified)
LC retention time: 4.8 min
